# Assays:
# Assay type in all cases: biochemical
# JAK1 [1] = target: T1, JAK1 (Homo sapiens (Human), UniProt P23458); experiment: Enzyme assay (LANCE Ultra ULight-JAK1 Peptide), JAK1; conditions: ATP 100 μM
# JAK2 [2] = target: T2, JAK2 (Homo sapiens (Human), UniProt O60674); experiment: Enzyme assay (LANCE Ultra ULight-JAK1 Peptide), JAK2; conditions: ATP 100 μM
# JAK3 = JAK3 (Homo sapiens (Human), UniProt P52333); experiment: Enzyme assay, JAK3 (Assay Example^b 1)
# Protocol: (§1) JAK1, JAK2, JAK3 and Tyk2 were purchased from Carna Biosciences, Inc. As the substrate, LANCE Ultra ULight-JAK1 Peptide (manufactured by PerkinElmer Co., Ltd. (PE)) was used. Dilute solutions of compounds and enzymes in assay buffer (50 mM HEPES pH7.5, 1 mM EGTA, 1 mM MgCl2, 2 mM DTT, 0.01% Tween20) were dispensed into wells of a 384-well black plate. After 5 minutes of preincubation, dilute solutions of the substrate and ATP (adenosine triphosphate) were added at a final concentration of 100 μM, and the plate was incubated at room temperature for 2 hours. After addition of a termination reagent containing EDTA (ehylenediamine tetraacetic acid) at a final concentration of 10 mM, LANCE Eu-W1024 Anti-phosphotyrosine (PT66) (manufactured by PE) was added, and after 1 hour of incubation, the fluorescences were measured with ARVO-HTS. From the plot of logarithm of a compound concentration and inhibitory activity, the IC50 was calculated.
# JAK2 [3] = target: T2, JAK2; experiment: Enzyme assay, JAK2 (Assay Example^b 1); conditions: ATP 100 μM
# Protocol: as §1
# Tyk2 [4] = target: T3, Tyk2 (Homo sapiens (Human), UniProt P29597); experiment: Enzyme assay, Tyk2 (Assay Example^b 1); conditions: ATP 100 μM
# Protocol: as §1
# Tyk2 [5] = target: T3, Tyk2; experiment: Enzyme assay (LANCE Ultra ULight-JAK1 Peptide), Tyk2; conditions: ATP 100 μM
# JAK1 [6] = target: T1, JAK1; experiment: Enzyme assay, JAK1 (Assay Example^b 1); conditions: ATP 100 μM
# Protocol: as §1
# T1 sequence (P23458 whole entry): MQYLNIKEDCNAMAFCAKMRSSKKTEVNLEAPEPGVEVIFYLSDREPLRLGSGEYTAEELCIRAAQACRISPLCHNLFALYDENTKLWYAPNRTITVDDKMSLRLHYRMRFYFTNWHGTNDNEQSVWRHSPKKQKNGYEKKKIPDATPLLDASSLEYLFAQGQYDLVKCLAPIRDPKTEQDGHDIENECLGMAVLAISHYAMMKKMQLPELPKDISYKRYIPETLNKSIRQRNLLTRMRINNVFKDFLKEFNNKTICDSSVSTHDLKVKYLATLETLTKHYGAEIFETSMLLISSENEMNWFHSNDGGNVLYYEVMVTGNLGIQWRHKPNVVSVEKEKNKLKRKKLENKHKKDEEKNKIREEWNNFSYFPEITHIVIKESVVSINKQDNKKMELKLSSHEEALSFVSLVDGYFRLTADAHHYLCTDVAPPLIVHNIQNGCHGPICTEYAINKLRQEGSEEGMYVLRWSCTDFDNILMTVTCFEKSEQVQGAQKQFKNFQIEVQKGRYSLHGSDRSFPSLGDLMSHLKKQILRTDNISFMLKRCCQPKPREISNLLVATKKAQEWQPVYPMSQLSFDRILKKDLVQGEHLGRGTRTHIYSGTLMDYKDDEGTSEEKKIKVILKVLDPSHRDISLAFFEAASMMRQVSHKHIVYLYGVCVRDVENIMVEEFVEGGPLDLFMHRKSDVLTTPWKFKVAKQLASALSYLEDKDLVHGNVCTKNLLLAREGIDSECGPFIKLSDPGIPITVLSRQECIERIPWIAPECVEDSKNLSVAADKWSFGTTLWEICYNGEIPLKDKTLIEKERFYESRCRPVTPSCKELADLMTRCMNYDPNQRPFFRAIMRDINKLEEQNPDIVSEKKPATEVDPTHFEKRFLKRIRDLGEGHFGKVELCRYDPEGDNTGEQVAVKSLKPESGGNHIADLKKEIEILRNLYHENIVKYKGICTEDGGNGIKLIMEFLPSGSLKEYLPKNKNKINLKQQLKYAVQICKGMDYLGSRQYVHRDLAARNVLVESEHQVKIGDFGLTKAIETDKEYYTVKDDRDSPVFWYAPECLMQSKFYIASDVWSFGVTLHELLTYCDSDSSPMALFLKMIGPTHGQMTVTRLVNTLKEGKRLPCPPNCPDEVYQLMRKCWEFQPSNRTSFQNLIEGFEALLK
# T3 sequence (P29597 whole entry): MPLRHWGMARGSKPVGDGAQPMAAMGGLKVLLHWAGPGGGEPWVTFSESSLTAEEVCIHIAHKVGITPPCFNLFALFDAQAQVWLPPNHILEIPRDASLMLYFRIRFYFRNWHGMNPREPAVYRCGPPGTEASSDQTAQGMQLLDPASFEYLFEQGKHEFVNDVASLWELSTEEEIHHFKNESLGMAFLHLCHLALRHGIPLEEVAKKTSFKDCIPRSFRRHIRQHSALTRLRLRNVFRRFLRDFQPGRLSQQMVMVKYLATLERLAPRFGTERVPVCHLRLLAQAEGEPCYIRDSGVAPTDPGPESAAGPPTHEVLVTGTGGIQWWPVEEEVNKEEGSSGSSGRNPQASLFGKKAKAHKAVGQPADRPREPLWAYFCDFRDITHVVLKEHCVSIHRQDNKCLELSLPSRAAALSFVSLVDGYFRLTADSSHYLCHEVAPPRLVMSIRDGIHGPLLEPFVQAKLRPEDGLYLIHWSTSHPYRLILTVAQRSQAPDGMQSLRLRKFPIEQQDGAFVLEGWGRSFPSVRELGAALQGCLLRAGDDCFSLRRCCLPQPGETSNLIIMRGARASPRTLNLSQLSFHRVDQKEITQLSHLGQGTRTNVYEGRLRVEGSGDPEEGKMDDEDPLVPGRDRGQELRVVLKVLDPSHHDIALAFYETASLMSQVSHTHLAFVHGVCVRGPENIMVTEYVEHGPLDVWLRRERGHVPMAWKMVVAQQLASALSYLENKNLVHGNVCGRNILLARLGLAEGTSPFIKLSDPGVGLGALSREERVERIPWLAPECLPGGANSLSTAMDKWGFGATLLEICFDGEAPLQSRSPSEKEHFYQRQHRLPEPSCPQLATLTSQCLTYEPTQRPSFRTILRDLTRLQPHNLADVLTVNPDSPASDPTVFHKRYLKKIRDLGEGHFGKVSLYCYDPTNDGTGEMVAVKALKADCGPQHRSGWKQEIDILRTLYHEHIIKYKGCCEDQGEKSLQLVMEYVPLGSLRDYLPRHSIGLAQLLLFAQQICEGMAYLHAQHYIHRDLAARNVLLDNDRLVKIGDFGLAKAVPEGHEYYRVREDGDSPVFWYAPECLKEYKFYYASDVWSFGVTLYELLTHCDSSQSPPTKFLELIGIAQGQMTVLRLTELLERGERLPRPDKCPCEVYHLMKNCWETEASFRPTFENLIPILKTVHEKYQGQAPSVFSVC
# JAK3, sequence (P52333 whole entry): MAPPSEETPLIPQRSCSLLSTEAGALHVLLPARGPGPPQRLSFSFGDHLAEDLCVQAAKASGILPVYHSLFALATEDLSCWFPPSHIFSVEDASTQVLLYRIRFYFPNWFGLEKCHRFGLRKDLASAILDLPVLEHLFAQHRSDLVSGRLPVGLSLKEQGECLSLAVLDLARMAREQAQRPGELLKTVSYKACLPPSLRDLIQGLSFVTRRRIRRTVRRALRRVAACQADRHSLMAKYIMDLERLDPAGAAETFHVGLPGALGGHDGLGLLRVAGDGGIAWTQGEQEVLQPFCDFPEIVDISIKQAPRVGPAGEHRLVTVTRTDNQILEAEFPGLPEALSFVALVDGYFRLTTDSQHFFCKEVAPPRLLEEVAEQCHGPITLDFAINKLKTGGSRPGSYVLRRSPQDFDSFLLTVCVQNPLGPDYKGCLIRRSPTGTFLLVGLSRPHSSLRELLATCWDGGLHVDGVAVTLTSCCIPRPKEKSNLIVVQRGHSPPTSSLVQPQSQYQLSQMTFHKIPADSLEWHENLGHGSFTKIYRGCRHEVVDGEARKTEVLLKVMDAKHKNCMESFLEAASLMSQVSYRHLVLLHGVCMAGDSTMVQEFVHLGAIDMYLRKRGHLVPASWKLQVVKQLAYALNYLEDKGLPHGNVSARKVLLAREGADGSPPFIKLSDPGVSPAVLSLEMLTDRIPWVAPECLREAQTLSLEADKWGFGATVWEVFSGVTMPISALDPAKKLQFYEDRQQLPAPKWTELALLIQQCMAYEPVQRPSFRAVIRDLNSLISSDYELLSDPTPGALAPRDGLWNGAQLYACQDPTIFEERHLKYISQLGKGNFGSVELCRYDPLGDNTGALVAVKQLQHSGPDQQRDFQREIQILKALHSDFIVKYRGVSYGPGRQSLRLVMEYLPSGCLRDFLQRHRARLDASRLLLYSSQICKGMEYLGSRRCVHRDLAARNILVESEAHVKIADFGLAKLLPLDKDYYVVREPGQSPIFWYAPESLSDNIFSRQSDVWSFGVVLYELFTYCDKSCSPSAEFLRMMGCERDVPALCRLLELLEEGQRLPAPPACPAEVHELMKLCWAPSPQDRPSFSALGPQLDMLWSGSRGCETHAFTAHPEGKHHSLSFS
SMILES,IC50 (JAK1 [1]; Synthetic Examples^a) [µM],IC50 (JAK2 [2]; Synthetic Examples^a) [µM],IC50 (JAK3) [nM],other results
CC(c1ccccc1)N1CCC(c2nnn3cnc4[nH]ccc4c23)CC1 (racemic) [Ex 245],0.017,0.062,–,–
"C[C@@H]1CCN(Cc2cccc(F)c2F)C[C@@H]1n1ccc(=O)c2cnc3[nH]ccc3c21 (racemic) [Synthetic Example^b 6a, rac-1-[(3R,4R)-1-(2,3-Difluorobenzyl)-4-methylpiperidin-3-yl]-1H-pyrrolo[2,3-h][1,6]naphthyridin-4(7H)-one]",–,–,31,–
"C[C@@H]1CCN(C)C[C@@H]1n1ccc(=O)c2cnc3[nH]ccc3c21 (racemic) [Synthetic Example^b 6b, rac-1-[(3R,4R)-1,4-Dimethylpiperidin-3-yl]-1H-pyrrolo[2,3-h][1,6]naphthyridin-4(7H)-one]",–,–,250,IC50 (JAK2 [3]): 0.38 µM; IC50 (Tyk2 [4]): 3.9 µM
CC1(C)CCC(c2nnn3cnc4[nH]ccc4c23)CC1 [Ex 64],–,–,–,IC50 (JAK1 [1]): 0.033 µM; IC50 (JAK2 [2]): 0.12 µM; IC50 (Tyk2 [5]): 0.31 µM; IC50 (JAK1 [6]): 0.012 µM
c1ccc2sc(CN3CCC(c4nnn5cnc6[nH]ccc6c45)CC3)nc2c1 [Ex 232],0.0053,0.033,–,IC50 (Tyk2 [5]; Synthetic Examples^a): 0.74 µM
Brc1nc(CN2CCC(c3nnn4cnc5[nH]ccc5c34)CC2)sc1Br [Ex 233],0.021,0.071,–,–

# Reference: patent US9556187B2, “Substituted pyrrolo[3′,2′:5,6]pyrido[4,3-d]pyrimidines and JAK inhibitors comprising the same” (priority 2011, dated 2017)
